Assay results from ChEMBL document CHEMBL1152152, “Quantitative structure-activity relationship of phenoxyphenyl-methanamine compounds with 5HT2A, SERT, and hERG activities” (Bioorg Med Chem Lett, 2008).

Legend:
[1] = target: 5-hydroxytryptamine receptor 2A (Homo sapiens, UniProt P28223); assay: Displacement of [3H]ketanserin from 5HT2A receptor
[2] = target: Sodium-dependent serotonin transporter (Homo sapiens, UniProt P31645); assay: Inhibition of serotonin reuptake at SERT
[3] = target: Voltage-gated inwardly rectifying potassium channel KCNH2 (Homo sapiens, UniProt Q12809); assay: Displacement of [3H]dofetilide from human ERG channel
Sequence of Voltage-gated inwardly rectifying potassium channel KCNH2 (Q12809 whole entry): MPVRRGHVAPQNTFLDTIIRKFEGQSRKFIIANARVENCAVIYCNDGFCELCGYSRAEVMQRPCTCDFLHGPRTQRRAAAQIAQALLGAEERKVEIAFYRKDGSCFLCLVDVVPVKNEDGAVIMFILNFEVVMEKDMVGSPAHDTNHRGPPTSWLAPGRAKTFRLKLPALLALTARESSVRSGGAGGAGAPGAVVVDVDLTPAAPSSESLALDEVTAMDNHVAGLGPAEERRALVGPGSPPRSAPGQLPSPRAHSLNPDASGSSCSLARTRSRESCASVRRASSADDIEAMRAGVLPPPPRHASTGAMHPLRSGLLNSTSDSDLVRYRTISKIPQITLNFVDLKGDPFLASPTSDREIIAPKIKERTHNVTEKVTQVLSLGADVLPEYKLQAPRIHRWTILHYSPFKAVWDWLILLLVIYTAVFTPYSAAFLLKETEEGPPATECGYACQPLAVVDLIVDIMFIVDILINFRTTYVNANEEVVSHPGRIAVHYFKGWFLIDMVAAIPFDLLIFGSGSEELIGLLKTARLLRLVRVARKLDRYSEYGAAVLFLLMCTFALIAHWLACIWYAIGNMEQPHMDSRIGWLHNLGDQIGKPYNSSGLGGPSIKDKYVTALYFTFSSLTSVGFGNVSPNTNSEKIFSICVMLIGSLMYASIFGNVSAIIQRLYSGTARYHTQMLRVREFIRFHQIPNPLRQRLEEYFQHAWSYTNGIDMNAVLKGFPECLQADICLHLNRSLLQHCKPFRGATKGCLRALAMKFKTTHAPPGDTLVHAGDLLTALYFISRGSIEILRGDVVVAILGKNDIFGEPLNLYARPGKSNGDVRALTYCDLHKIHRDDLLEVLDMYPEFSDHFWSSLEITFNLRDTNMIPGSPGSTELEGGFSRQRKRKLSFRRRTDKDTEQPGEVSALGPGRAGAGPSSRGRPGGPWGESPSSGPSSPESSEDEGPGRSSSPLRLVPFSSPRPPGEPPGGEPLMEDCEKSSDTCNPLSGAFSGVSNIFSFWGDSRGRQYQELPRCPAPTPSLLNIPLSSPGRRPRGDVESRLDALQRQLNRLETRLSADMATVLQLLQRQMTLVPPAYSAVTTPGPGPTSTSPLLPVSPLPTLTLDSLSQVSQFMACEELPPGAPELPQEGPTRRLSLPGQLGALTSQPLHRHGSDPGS

Sequence of Sodium-dependent serotonin transporter (P31645 whole entry): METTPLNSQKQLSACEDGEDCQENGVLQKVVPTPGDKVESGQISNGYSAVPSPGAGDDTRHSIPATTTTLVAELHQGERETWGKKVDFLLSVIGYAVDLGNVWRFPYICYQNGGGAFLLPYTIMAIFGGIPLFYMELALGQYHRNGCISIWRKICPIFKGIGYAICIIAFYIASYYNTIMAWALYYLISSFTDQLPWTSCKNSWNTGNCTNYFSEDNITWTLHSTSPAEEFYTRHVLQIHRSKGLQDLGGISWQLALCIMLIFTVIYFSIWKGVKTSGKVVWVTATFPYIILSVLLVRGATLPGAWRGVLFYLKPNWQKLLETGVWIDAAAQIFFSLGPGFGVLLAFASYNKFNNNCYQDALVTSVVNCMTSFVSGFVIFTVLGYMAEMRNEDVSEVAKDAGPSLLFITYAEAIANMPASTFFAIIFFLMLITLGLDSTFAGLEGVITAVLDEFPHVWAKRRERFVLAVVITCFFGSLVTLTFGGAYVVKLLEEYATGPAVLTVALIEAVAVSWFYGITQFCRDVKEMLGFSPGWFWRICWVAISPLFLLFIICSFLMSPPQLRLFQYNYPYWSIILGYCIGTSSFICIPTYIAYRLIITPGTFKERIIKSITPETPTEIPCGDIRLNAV
Sequence of 5-hydroxytryptamine receptor 2A (P28223 whole entry): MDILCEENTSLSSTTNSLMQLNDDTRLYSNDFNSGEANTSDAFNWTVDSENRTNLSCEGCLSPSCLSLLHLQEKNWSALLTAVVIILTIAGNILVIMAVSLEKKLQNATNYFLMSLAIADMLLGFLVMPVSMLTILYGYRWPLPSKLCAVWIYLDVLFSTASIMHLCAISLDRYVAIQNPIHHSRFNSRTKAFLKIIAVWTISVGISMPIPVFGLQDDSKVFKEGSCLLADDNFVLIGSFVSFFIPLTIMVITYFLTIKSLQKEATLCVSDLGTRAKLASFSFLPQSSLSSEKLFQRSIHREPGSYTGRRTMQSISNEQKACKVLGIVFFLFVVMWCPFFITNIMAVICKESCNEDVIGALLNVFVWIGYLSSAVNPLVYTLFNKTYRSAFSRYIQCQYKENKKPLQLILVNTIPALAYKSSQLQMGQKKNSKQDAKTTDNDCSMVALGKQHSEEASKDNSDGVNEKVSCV

IC50 [1] [nM]	IC50 [2] [nM]	Compound	IC50 [3] [nM]
1980	1.68	CN(C)Cc1ccccc1Oc1ccc(Cl)cc1	
575	37.5	CNCc1cc(F)ccc1Oc1ccc(F)c(Cl)c1	
144	0.35	CN(C)Cc1ccccc1Oc1ccc(Cl)c(Cl)c1	
206	34.8	CNC(C)c1cc(F)ccc1Oc1ccc(Cl)cc1 (configuration not stated)	
58.1	88	CNCc1ccc(Cl)cc1Oc1ccc(Cl)c(F)c1	1230
1000	34.4	CN(C)Cc1ccccc1Oc1ccc(F)c(F)c1	
1.18	17	CNCc1ccc(Cl)cc1Oc1ccc(C)cc1	
2010	19.3	CNCc1cc(F)ccc1Oc1ccc(Cl)c(F)c1	
48.6	77.5	CNCc1ccc(Cl)cc1Oc1cccc(Cl)c1	2110
47.1	20.7	CCc1cc(Oc2cc(Cl)ccc2CNC)ccc1Cl	1150
458	1	CSc1ccc(Oc2ccccc2CN(C)C)cc1	3020
3180	2.5	CNCc1cc(C#N)ccc1Oc1ccc(Cl)c(Cl)c1	4560
66.8	5.1	CNCc1ccc(Br)cc1Oc1ccc(Cl)c(Cl)c1	
2240	2.43	CN(C)Cc1cc(CC(N)=O)ccc1Oc1ccc(Cl)c(Cl)c1	
9.11	4.19	CNCc1ccc(Cl)cc1Oc1ccc(C)c(Cl)c1	
9.04	4.27	CNCc1ccc(Cl)cc1Oc1ccc(Cl)c(C)c1	
291	61.2	CNC(C)c1cc(C(F)(F)F)ccc1Oc1ccc(Cl)c(Cl)c1 (configuration not stated)	3030
172	39.6	CNC(C)c1cc(C)ccc1Oc1ccc(Cl)c(Cl)c1 (configuration not stated)	
60.9	25.4	CNCc1ccc(Cl)cc1Oc1ccc(F)c(Cl)c1	
48.9	9.71	CNCc1ccc(Cl)cc1Oc1ccc(F)c(C(F)(F)F)c1	873
74.2	3.46	Cc1ccc(Oc2ccccc2CN(C)C)cc1	
378	28.9	CNCc1cc(F)ccc1Oc1ccc(-c2ccccc2)cc1	

IC50 [1] [nM]	IC50 [2] [nM]	Compound	IC50 [3] [nM]
74.6	4.51	CNCc1cc(F)c(OC)cc1Oc1ccc(Cl)c(Cl)c1	
32.9	31.2	CNCc1ccc(Cl)cc1Oc1ccc(F)c(C)c1	
36.8	3.61	COc1ccc(CN(C)C)c(Oc2ccc(Cl)c(Cl)c2)c1	
5570	9.35	CNCc1cc(S(=O)(=O)NC)ccc1Oc1ccc(Cl)c(Cl)c1	4800
79.4	8.9	CNCc1cc(C)c(C)cc1Oc1ccc(Cl)c(Cl)c1	1480
1550	3.78	CNCc1cc(C(N)=O)ccc1Oc1ccc(Cl)c(Cl)c1	5440
376	2.36	Cc1ccc(Oc2ccc(Cl)c(Cl)c2)c(CN(C)C)c1	3390
230	4.37	CNCc1cc(F)c(Cl)cc1Oc1ccc(Cl)c(Cl)c1	
3.54	187	CNC(C)c1ccc(Cl)cc1Oc1ccc(C)cc1 (configuration not stated)	3690
51	9.81	CNCc1cc(Cl)ccc1Oc1ccc(C)c(C)c1	
90.2	7.49	CNCc1cc(Cl)ccc1Oc1ccc(Cl)cc1	
6.59	9.2	CNCc1ccc(Cl)cc1Oc1ccc(Cl)cc1	
34.7	74.7	CNCc1cc(C(F)(F)F)ccc1Oc1ccc(C)cc1	10400
670	381	CNCc1cc(F)ccc1Oc1ccccc1	
3.42	4.67	CNCc1ccc(Cl)cc1Oc1ccc(C)c(C)c1	
87.8	3.27	CC(c1ccccc1Oc1ccc(Cl)c(Cl)c1)N(C)C (configuration not stated)	
249	14.1	CNCc1cc(OC)c(OC)cc1Oc1ccc(Cl)c(Cl)c1	
379	23	CNC(C)c1ccccc1Oc1ccc(Cl)c(Cl)c1 (configuration not stated)	
179	56.8	CNC(C)c1ccccc1Oc1ccc(Cl)cc1 (configuration not stated)	
651	36	CNCc1ccc(F)cc1Oc1ccc(Cl)c(Cl)c1	
52.4	7.55	CNCc1cc(F)ccc1Oc1ccc(C)c(C)c1	
206	3.28	CNCc1cc(F)ccc1Oc1ccc(Cl)c(Cl)c1	

IC50 [1] [nM]	IC50 [2] [nM]	Compound	IC50 [3] [nM]
41.5	17.1	CN(C)Cc1ccc(C(F)(F)F)cc1Oc1ccc(Cl)c(Cl)c1	
66.4	12.8	CNCc1ccccc1Oc1ccc(C)c(C)c1	
1050	13.9	CNCc1ccccc1Oc1ccc(Cl)cc1	
362	29.6	CNCc1ccc(C(F)(F)F)cc1Oc1ccc(Cl)c(Cl)c1	
89.5	6.22	CNCc1ccc(Cl)cc1Oc1ccc(Cl)c(Cl)c1	
495	9.47	CNCc1cc(F)ccc1Oc1ccc(Cl)cc1	
787	4.8	CNCc1cc(Br)ccc1Oc1ccc(Cl)c(Cl)c1	
301	8.09	CNC(C)c1cc(F)ccc1Oc1ccc(Cl)c(Cl)c1 (configuration not stated)	
724	4.99	CN(C)Cc1cc(N)ccc1Oc1ccc(Cl)c(Cl)c1	
721	4.02	CNCc1ccccc1Oc1ccc(Cl)c(Cl)c1	
105	8.72	CNCc1ccc(OC)cc1Oc1ccc(Cl)c(Cl)c1	
429	5.73	CNCc1cc(Cl)ccc1Oc1ccc(Cl)c(Cl)c1	
324	31.1	CNCc1ccc(C(F)(F)F)cc1Oc1ccc(Cl)cc1	5110
274	5.53	CCc1cc(Oc2ccc(F)cc2CNC)ccc1Cl	
1800	21.8	CNCc1cc(C(F)(F)F)ccc1Oc1ccc(Cl)c(Cl)c1	
55.1	94.1	CNC(C)c1ccccc1Oc1ccc(C)cc1 (configuration not stated)	
315		CNCc1ccc(C#N)cc1Oc1ccc(Cl)c(Cl)c1	1310
6.82	115	CNC(C)c1ccc(Cl)cc1Oc1ccc(C)c(C)c1 (configuration not stated)	
88	41.2	CNC(C)c1ccc(OC)cc1Oc1ccc(Cl)c(Cl)c1 (configuration not stated)	
1450	3.77	CNCc1cc(OC)ccc1Oc1ccc(Cl)c(Cl)c1	
